Measurements published in patent US7094799B2, “Polymorphs of bicifadine hydrochloride” (DOV Pharmaceutical, Inc., priority 2002, dated 2006).
Structures can show the parent of a compound that is named as a salt.

What was measured:
Assay type in all cases: physicochemical
[1] = Stability of the polymorphic form on grinding (Retsch Mixer Mill, XRPD analysis); settings: Retsch Mixer Mill MM 200, stainless steel ball, 30/s, 5-minute intervals, total of 20 minutes; hydrochloride
Method: The X-ray powder diffraction (XRPD) analyses of polymorphic forms A and B of racemic bicifadine hydrochloride were performed with a Shimadzu XRD-6000 X-ray powder diffractometer using Cu Kα radiation. The bicifadine was loaded onto the machine as a crystalline powder. The instrument was equipped with a fine focus X-ray tube. The tube voltage and amperage were set to 40 kV and 40 mA, respectively. The divergence and scattering slits were set at 1° and the receiving slit was set at 0.15 mm. Diffracted radiation was detected by a NaI scintillation detector. A theta-two theta continuous scan at 3°/min (0.4 sec/0.02° step) from 2.5 to 40°2θ was used. A silicon standard was analyzed to check the instrument alignment. Data were collected and analyzed using XRD-6000 v. 4.1.
Form A bicifadine hydrochloride (207 mg) was charged to a small stainless steel cylinder. A stainless steel ball was added, the cylinder capped, and the unit shaken on a Retsch Mixer Mill (Type MM 200) at 5-minute intervals at a frequency of 30/s for a total of 20 minutes. The milled material was then removed and analyzed by XRPD.
Form B bicifadine hydrochloride (111 mg) was charged to a small stainless steel cylinder. […] The milled material was then removed and analyzed by XRPD.

[2] = Thermodynamic stability of polymorphic forms; settings: form B compared with form A; hydrochloride
[3] = Solubility in organic solvents; settings: room temperature; become soluble when heated
Method: However, they become soluble when heated. In accordance with this conversion, the polymorph form A crystals of bicifadine hydrochloride are mixed with an organic solvent, having a boiling point of at least 50° C. to form a slurry. In carrying out this conversion any conventional organic solvent having a boiling point of at least 50° C. can be utilized. The slurry is then heated to a temperature at which said slurry is a clear solution, and this solution is cooled to a temperature of at most about 35° C., preferably between about 0° C. to about 20° C. The cooled solution is maintained at a temperature of at most about 35° C. for a period of time sufficient to allow said polymorph B to form as a pure crystalline form free from the presence of the polymorph form A. If desired, cooling can be carried out with stirring. During cooling the mixture should be monitored to allow sufficient time for crystalline polymorph B to form from the mixture.

Structure (SMILES)	polymorphic form after grinding (XRPD) [1]	thermodynamic stability of crystal form [2]	solubility in organic solvents [3]
Cc1ccc(C23CNCC2C3)cc1 (racemic) [Form B bicifadine hydrochloride, (±)-1-(4-methylphenyl)-3-azabicyclo[3.1.0]-hexane hydrochloride]	remained form B	more thermodynamically stable	–
Cc1ccc(C23CNCC2C3)cc1 (racemic) [Form A bicifadine hydrochloride, (±)-1-(4-methylphenyl)-3-azabicyclo[3.1.0]-hexane hydrochloride]	partial conversion to form B	not the most thermodynamically stable polymorphic form	poorly soluble
